{
  "source": "patent US12559455B2",
  "about": "“Compound as a UBR box domain ligand” (AUTOTAC INC., priority 2020, dated 2026)",
  "data": [
    {"biological_target": "T1, UBR box of Human UBR1 (Homo sapiens, UniProt Q8IWV7)", "T1 construct": "A Gln97-Pro168 portion corresponding to the UBR box of Human UBR1; made in house; host or cells: E. coli", "T1 sequence (Q8IWV7 97-168)": "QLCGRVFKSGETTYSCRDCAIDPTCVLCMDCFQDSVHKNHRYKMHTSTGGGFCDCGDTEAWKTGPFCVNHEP", "assay": "UBR box domain binding by microscale thermophoresis (MST)", "details": "RED-NHS labeled UBR1 UBR box protein (Gln97-Pro168), FIGS. 12 to 19", "method": "A Gln97-Pro168 portion corresponding to the UBR box of Human UBR1 (UniProt ID: Q81WV7) was cloned into a modified expression vector, and then expressed in E. coli. After affinity chromatography was used, a tag was removed by a protease, and then Gly-His-Met was added to the N-terminal. After ion chromatography was performed, a final UBR box protein of a UBR1 was purified using gel filtration chromatography in a buffer composition of 10 mM NaCl, 20 mM Tris-HCl, 2 mM beta-mercaptoethanol, and pH 7.5.\nA dye of the Monolith protein labeling kit RED-NHS 2nd generation (Cat #MO-L011) has an NHS-ester group that forms a covalent bond with primary amines (lysine residues). This dye is optimized for a Monolith-series device equipped with a RED detector. A purified UBR1 UBR box protein was labeled according to the presented protocol using this kit.\nThermophoresis refers to a phenomenon in which particles move due to a temperature gradient. Particles present in a high temperature region have greater kinetic energy than particles present in a low temperature region, and more frequently collide with surrounding particles with greater energy. As a result, particles move from the high temperature region to the low temperature region.\nThermophoresis of proteins is typically different from that of protein-ligand complexes. This is because the binding of the ligand changes its size, electric charge, and solvation energy. […] Therefore, the binding of the UBR1 UBR box protein and the ligand compound was measured using MST, and it was confirmed that the presented ligand binds to the UBR1 UBR box (see FIGS. 12 to 19).", "values": [
      {"molecule": "Cc1ccc(S(=O)(=O)NNC(=O)c2ccc(O)cc2)cc1", "note": "[Compound 1, N′-(4-hydroxybenzoyl)-4-methylbenzenesulfonohydrazide]", "binding to UBR1 UBR box (MST)": "binds"},
      {"molecule": "Nc1cccc(S(=O)(=O)NNC(=O)c2ccc(O)cc2)c1", "note": "[Compound 8, 3-amino-N′-(4-hydroxybenzoyl)benzenesulfonohydrazide]", "binding to UBR1 UBR box (MST)": "binds"},
      {"molecule": "O=C(NNS(=O)(=O)c1ccc(NCCO)cc1)c1ccc(O)cc1", "note": "[Compound 11, N′-(4-hydroxybenzoyl)-4-((2-hydroxyethyl)amino)benzenesulfonohydrazide]", "binding to UBR1 UBR box (MST)": "binds"}
    ]},
    {"biological_target": "T2, UBR1 (Rattus norvegicus, UniProt A0A8I5ZK69)", "T2 construct": "endogenous in cells; host or cells: L6 rat muscle-derived cells", "T2 sequence (A0A8I5ZK69 1-1749)": "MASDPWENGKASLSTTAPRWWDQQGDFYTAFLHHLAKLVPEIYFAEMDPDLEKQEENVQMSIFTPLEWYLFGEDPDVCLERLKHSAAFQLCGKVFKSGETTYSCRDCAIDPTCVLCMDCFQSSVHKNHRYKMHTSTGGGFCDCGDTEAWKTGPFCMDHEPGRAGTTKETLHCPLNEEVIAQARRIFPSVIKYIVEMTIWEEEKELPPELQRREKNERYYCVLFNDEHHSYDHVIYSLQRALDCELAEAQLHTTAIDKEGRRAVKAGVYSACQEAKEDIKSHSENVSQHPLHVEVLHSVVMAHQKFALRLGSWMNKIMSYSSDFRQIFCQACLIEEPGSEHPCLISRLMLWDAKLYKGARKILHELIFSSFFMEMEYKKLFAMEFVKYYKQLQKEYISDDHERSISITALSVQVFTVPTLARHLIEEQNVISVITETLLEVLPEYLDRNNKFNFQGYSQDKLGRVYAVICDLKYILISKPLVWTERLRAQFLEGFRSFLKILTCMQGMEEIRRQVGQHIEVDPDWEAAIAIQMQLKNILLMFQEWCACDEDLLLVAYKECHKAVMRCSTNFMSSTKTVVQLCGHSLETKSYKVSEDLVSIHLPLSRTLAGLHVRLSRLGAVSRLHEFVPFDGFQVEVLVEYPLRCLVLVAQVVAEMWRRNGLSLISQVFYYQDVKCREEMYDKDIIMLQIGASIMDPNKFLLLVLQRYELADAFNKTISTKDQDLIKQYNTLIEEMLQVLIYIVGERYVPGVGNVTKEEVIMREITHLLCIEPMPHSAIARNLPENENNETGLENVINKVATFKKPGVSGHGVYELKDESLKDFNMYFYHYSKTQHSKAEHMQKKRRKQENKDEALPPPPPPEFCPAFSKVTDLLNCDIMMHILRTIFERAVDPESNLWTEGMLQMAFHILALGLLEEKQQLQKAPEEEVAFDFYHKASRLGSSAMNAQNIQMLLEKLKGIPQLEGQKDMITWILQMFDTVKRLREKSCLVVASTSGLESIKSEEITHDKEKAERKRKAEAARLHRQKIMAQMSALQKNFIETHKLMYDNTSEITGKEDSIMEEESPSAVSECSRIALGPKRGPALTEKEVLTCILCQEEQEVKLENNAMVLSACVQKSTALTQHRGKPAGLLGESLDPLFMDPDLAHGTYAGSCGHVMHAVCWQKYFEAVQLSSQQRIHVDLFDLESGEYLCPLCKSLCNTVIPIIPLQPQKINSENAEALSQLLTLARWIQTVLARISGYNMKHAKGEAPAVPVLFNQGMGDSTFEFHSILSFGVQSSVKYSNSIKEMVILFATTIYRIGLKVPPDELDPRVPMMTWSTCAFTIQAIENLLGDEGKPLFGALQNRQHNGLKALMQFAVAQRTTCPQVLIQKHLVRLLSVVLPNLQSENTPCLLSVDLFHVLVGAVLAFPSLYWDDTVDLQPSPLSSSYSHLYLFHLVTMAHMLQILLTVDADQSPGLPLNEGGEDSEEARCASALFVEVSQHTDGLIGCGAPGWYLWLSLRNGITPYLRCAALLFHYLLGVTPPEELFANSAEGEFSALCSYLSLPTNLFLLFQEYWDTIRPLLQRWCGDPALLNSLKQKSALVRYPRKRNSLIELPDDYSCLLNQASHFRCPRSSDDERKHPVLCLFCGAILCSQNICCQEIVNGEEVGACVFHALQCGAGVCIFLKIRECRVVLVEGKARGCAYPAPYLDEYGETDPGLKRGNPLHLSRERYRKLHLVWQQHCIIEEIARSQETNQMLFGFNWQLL", "assay": "Inhibition of muscle cell actin degradation by immunoblotting", "format": "cell-based", "details": "L6 cell line, compound 5 uM, 24 hours", "method": "To evaluate the actin degradation of compounds in muscle cells, a L6 cell line, which is a rat muscle-derived cell, was cultured using a DMEM medium containing 10% FBS and 1% streptomycin/penicillin in an incubator in which 5% carbon dioxide was maintained. In order to measure the UBR1 binding strength according to the treatment with a representative compound selected from the present compounds, cells were aliquoted into a 12-well plate. The cells were additionally cultured for 24 hours so as to be completely attached to the surface of the plate. […] To extract proteins from the collected cells, 50 uL of a lysis buffer (20 mM Tris, pH 7.4, 150 mM NaCl, 1% Triton-X-100, 2 mM NaF, 2 mM EDTA, 2 mM b-glycerophosphate, 5 mM sodium orthovanadate, 1 mM PMSF, leupeptin, aprotenin) was injected into each sample, and the cells were lysed. A sample buffer was added to each sample based on the measured total protein concentration, and the mixture was reacted at 100° C. for 5 minutes. After 5 uL was taken from the completely reacted sample and aliquoted into each well of an acrylamide gel, an immunoblotting method was performed, and the experimental results were illustrated in [FIG. 4], [FIG. 5], [FIG. 6], [FIG. 7], [FIG. 8], and [FIG. 9]. For the immunoblotting method, a representative experiment was schematized from three or more independent experiments.", "values": [
      {"molecule": "Cc1ccc(S(=O)(=O)NNC(=O)c2ccc(O)cc2)cc1", "note": "[Compound 1, N′-(4-hydroxybenzoyl)-4-methylbenzenesulfonohydrazide]", "level of ACTA1 compared to the control": "further increased"},
      {"molecule": "Nc1ccc(S(=O)(=O)NNC(=O)c2ccc(-c3ccccc3)cc2)cc1", "note": "[Compound 6, N′-([1,1′-biphenyl]-4-carbonyl)-4-aminobenzenesulfonohydrazide]", "level of ACTA1 compared to the control": "further increased"},
      {"molecule": "Nc1cccc(S(=O)(=O)NNC(=O)c2ccc(O)cc2)c1", "note": "[Compound 8, 3-amino-N′-(4-hydroxybenzoyl)benzenesulfonohydrazide]", "level of ACTA2 compared to the control": "further increased"},
      {"molecule": "NC(=O)c1ccc(S(=O)(=O)NNC(=O)c2ccc(O)cc2)cc1", "note": "[Compound 15, 4-((2-(4-hydroxybenzoyl)hydrazinyl)sulfonyl)benzamide]", "level of ACTG2 compared to the control": "further increased"},
      {"molecule": "Nc1ccc(S(=O)(=O)NNC(=O)c2ccc(O)cc2)cc1-c1ccccc1", "note": "[Compound 17, 6-amino-N′-(4-hydroxybenzoyl)-[1,1′-biphenyl]-3-sulfonohydrazide]", "level of ACTG2 compared to the control": "further increased"},
      {"molecule": "NC(=O)c1ccc(C(=O)NNS(=O)(=O)c2ccc(N)cc2)cc1", "note": "[Compound 18, 4-(2-((4-aminophenyl)sulfonyl)hydrazine-1-carbonyl)benzamide]", "level of ACTA2 compared to the control": "further increased"},
      {"molecule": "Nc1ccc(CNNC(=O)c2ccc(O)cc2)cc1", "note": "[Compound 19, N′-(4-aminobenzyl)-4-hydroxybenzohydrazide]", "level of ACTA2 compared to the control": "further increased"},
      {"molecule": "Nc1ccc(S(=O)(=O)NNC(=O)c2c[nH]c3ccccc23)cc1", "note": "[Compound 20, 4-amino-N′-(1H-indole-3-carbonyl)benzenesulfonohydrazide]", "level of ACTA2 compared to the control": "further increased"},
      {"molecule": "O=C(NNS(=O)(=O)c1ccc([N+](=O)[O-])c(N2CCCC2)c1)c1ccc(O)cc1", "note": "[Compound 22, N′-(4-hydroxybenzoyl)-4-nitro-3-(pyrrolidin-1-yl)benzenesulfonohydrazide]", "level of ACTA2 compared to the control": "further increased"},
      {"molecule": "Nc1ccc(S(=O)(=O)NNC(=O)c2ccc(O)cc2)cc1N1CCCCC1", "note": "[Compound 23, 4-amino-N′-(4-hydroxybenzoyl)-3-(piperidin-1-yl)benzenesulfonohydrazide]", "level of ACTA2 compared to the control": "further increased"},
      {"molecule": "O=C(NNS(=O)(=O)c1cn[nH]c1)c1ccc(O)cc1", "note": "[Compound 24, N′-(4-hydroxybenzoyl)-1H-pyrazole-4-sulfonohydrazide]", "level of ACTA2 compared to the control": "further increased"},
      {"molecule": "O=C(NNS(=O)(=O)c1cccc2c1CCN2)c1ccc(O)cc1", "note": "[Compound 25, N′-(4-hydroxybenzoyl)indoline-4-sulfonohydrazide]", "level of ACTA2 compared to the control": "further increased"},
      {"molecule": "O=C(NNS(=O)(=O)c1cccc2[nH]ccc12)c1ccc(O)cc1", "note": "[Compound 26, N′-(4-hydroxybenzoyl)-1H-indole-4-sulfonohydrazide]", "level of ACTA2 compared to the control": "further increased"},
      {"molecule": "Nc1ccc(S(=O)(=O)NNC(=O)Nc2ccccc2)cc1", "note": "[Compound 27, 2-((4-aminophenyl)sulfonyl)-N-phenylhydrazine-1-carboxamide]", "level of ACTA2 compared to the control": "further increased"},
      {"molecule": "Nc1ccc(S(=O)(=O)NNC(=O)c2cccc3[nH]ccc23)cc1N1CCOCC1", "note": "[Compound 28, 4-amino-N′-(1H-indole-4-carbonyl)-3-morpholinobenzenesulfonohydrazide]", "level of ACTA2 compared to the control": "further increased"},
      {"molecule": "Nc1ccc(S(=O)(=O)NNC(=O)c2cccc3c2CCN3)cc1", "note": "[Compound 29, 4-amino-N′-(indoline-4-carbonyl)benzenesulfonohydrazide]", "level of ACTG2 compared to the control": "further increased"},
      {"molecule": "Nc1ccc(S(=O)(=O)NNC(=O)c2ccc(O)cc2)cc1N1CCNCC1", "note": "[Compound 30, 4-amino-N′-(4-hydroxybenzoyl)-3-(piperazin-1-yl)benzenesulfonohydrazide]", "level of ACTG2 compared to the control": "further increased"},
      {"molecule": "Nc1ccc(S(=O)(=O)NNC(=O)C2Cc3ccccc3C2)cc1", "note": "[Compound 31, 4-amino-N′-(2,3-dihydro-1H-indene-2-carbonyl)benzenesulfonohydrazide]", "level of ACTG2 compared to the control": "further increased"},
      {"molecule": "Nc1ccc(S(=O)(=O)NNC(=O)N2Cc3ccccc3C2)cc1", "note": "[Compound 32, 4-amino-N′-(isoindoline-2-carbonyl)benzenesulfonohydrazide]", "level of ACTA2 compared to the control": "further increased"},
      {"molecule": "Nc1ccc(S(=O)(=O)NNC(=O)Cc2ccccc2)cc1", "note": "[Compound 34, 4-amino-N′-(2-phenylacetyl)benzenesulfonohydrazide]", "level of ACTA2 compared to the control": "further increased"},
      {"molecule": "O=C(NNS(=O)(=O)c1n[nH]c2ccccc12)c1ccc(O)cc1", "note": "[Compound 35, N′-(4-hydroxybenzoyl)-1H-indazole-3-sulfonohydrazide]", "level of ACTA1 compared to the control": "further increased"},
      {"molecule": "Nc1ccc(S(=O)(=O)NNC(=O)c2ccc3c(c2)NCC3)cc1", "note": "[Compound 36, 4-amino-N′-(indoline-6-carbonyl)benzenesulfonohydrazide]", "level of ACTA1 compared to the control": "further increased"},
      {"molecule": "Nc1ccc(S(=O)(=O)NNC(=O)C2CNc3ccccc32)cc1", "note": "(centres unmarked) [Compound 37, 4-amino-N′-(indoline-3-carbonyl)benzenesulfonohydrazide]", "level of ACTA1 compared to the control": "further increased"},
      {"molecule": "O=C(NNS(=O)(=O)C1CCNCC1)c1ccc(O)cc1", "note": "[Compound 38, N′-(4-hydroxybenzoyl)piperidine-4-sulfonohydrazide]", "level of ACTA1 compared to the control": "further increased"},
      {"molecule": "Nc1ccc(S(=O)(=O)NNC(=O)c2ccc3c(c2)NCC3)cc1N1CCOCC1", "note": "[Compound 39, 4-amino-N′-(indoline-6-carbonyl)-3-morpholinobenzenesulfonohydrazide]", "level of ACTA1 compared to the control": "further increased"},
      {"molecule": "Nc1ccc(S(=O)(=O)NNC(=O)N2CCNCC2)cc1N1CCOCC1", "note": "[Compound 41, 4-amino-3-morpholino-N′-(piperazine-1-carbonyl)benzenesulfonohydrazide]", "level of ACTC1 compared to the control": "further increased"},
      {"molecule": "Cc1nc(S(=O)(=O)NNC(=O)c2ccc(O)cc2)cs1", "note": "[Compound 42, N′-(4-hydroxybenzoyl)-2-methylthiazole-4-sulfonohydrazide]", "level of ACTC1 compared to the control": "further increased"},
      {"molecule": "NC1CCC(S(=O)(=O)NNC(=O)c2ccc(O)cc2)CC1", "note": "[Compound 43, (1S,4S)-4-amino-N′-(4-hydroxybenzoyl)cyclohexane-1-sulfonohydrazide]", "level of ACTA1 compared to the control": "further increased"},
      {"molecule": "Cc1oc(C(=O)O)cc1S(=O)(=O)NNC(=O)c1ccc(O)cc1", "note": "[Compound 45, 4-((2-(4-hydroxybenzoyl)hydrazinyl)sulfonyl)-5-methylfuran-2-carboxylic acid]", "level of ACTA1 compared to the control": "further increased"},
      {"molecule": "O=C(NNS(=O)(=O)C1CCNC1)c1ccc(O)cc1", "note": "(centres unmarked) [Compound 46, N′-(4-hydroxybenzoyl)pyrrolidine-3-sulfonohydrazide]", "level of ACTA1 compared to the control": "further increased"},
      {"molecule": "O=C(NNS(=O)(=O)c1cc2cccnc2[nH]1)c1ccc(O)cc1", "note": "[Compound 47, N′-(4-hydroxybenzoyl)-1H-pyrrolo[2,3-b]pyridine-2-sulfonohydrazide]", "level of ACTA1 compared to the control": "further increased"},
      {"molecule": "(1R,4R)-4-amino-N′-(4-hydroxybenzoyl)cyclohexane-1-sulfonohydrazide [Compound 44]", "level of ACTA1 compared to the control": "further increased"}
    ]}
  ]
}
